In patent publication US11407738B2 (Achillion Pharmaceuticals, Inc., priority 2015, dated 2022):

The compounds below were run against Human Factor D (Homo sapiens (Human), UniProt P00746) (assay: Human Factor D assay). Conditions: Table 3; Factor D inhibition, substrate Z-L-Lys-SBzl.
Format: biochemical
Experimental: Human Factor D (purified from human serum, Complement Technology, Inc.) at 80 nM final concentration is incubated with test compound at various concentrations for 5 min at room temperature in 50 mM Tris, 1M NaCl, pH 7.5. A synthetic substrate Z-L-Lys-SBzl and DTNB (Ellman's reagent) are added to final concentrations of 100 μM each. […] IC50 values are calculated by nonlinear regression of complement Factor D reaction rates as a function of test compound concentration.

Human Factor D, sequence (P00746 26-253): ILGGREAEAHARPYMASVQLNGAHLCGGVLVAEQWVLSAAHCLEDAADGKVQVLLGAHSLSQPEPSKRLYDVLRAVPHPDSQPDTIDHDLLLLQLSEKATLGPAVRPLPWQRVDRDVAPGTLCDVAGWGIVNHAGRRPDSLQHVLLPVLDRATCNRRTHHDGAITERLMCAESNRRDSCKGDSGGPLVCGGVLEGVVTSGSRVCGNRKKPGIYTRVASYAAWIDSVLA

SMILES | IC50
CC(=O)c1cn(CC(=O)NC(CC(F)(F)F)C(=O)Nc2cccc(-c3ccccc3Cl)c2F)c2ccc(-c3cnc(C)nc3)cc12 (stereo not drawn) [Compound 507, 2-(2-(3-Acetyl-5-(2-methylpyrimidin-5-yl)-1H-indol-1-yl)acetamido)-N-(2′-chloro-2-fluorobiphenyl-3-yl)-4,4,4-trifluorobutanamide] | > 10 µM
CC(=O)c1nn(CC(=O)N2C[C@H](F)C[C@H]2C(=O)Nc2cccc(-c3cc(S(N)(=O)=O)ccc3Cl)c2F)c2ccc(-c3cnc(C)nc3)cc12 [Compound 525, (2S,4R)-1-(2-(3-acetyl-5-(2-methylpyrimidin-5-yl)-1H-indazol-1-yl)acetyl)-N-(2′-chloro-2-fluoro-5′-sulfamoylbiphenyl-3-yl)-4-fluoropyrrolidine-2-carboxamide] | < 1 µM
CC(=O)c1cn(CC(=O)N[C@H](C(=O)Nc2cccc(Br)n2)[C@@H](C)O)c2ccc(-c3cnc(C)nc3)cc12 [Compound 505, (2S,3R)-2-(2-(3-Acetyl-5-(2-methylpyrimidin-5-yl)-1H-indol-1-yl)acetamido)-N-(6-bromopyridin-2-yl)-3-hydroxybutanamide] | < 1 µM
CC(=O)c1nn(CC(=O)N2C[C@H](F)C[C@H]2C(=O)Nc2ccc3c(S(=O)(=O)O)cccc3c2)c2ccc(-c3cnc(C)nc3)cc12 [Compound 511, 6-((2S,4R)-1-(2-(3-Acetyl-5-(2-methylpyrimidin-5-yl)-1H-indazol-1-yl)acetyl)-4-fluoropyrrolidine-2-carboxamido)naphthalene-1-sulfonic Acid] | 1 to 10 µM
CC(=O)c1nn(CC(=O)N2C[C@H](F)C[C@H]2C(=O)N2CCn3c(nnc3C(F)(F)F)C2)c2ccc(-c3cnc(C)nc3)cc12 [Compound 524, 2-(3-acetyl-5-(2-methylpyrimidin-5-yl)-1H-indazol-1-yl)-1-((2S,4R)-4-fluoro-2-(3-(trifluoromethyl)-5,6,7,8-tetrahydro-[1,2,4]triazolo[4,3-a]pyrazine-7-carbonyl)pyrrolidin-1-yl)ethanone] | > 10 µM
COC(=O)[C@@H]1C[C@@H](F)CN1C(=O)Cn1nc(C(C)=O)c2cc(-c3cnc(C)nc3)ccc21 [Compound 513, (2S,4R)-methyl 1-(2-(3-acetyl-5-(2-methylpyrimidin-5-yl)-1H-indazol-1-yl)acetyl)-4-fluoropyrrolidine-2-carboxylate] | > 10 µM
CC(=O)c1nn(CC(=O)N2C[C@H](F)C[C@H]2C(=O)Nc2cccc(S(F)(F)(F)(F)F)c2)c2ccc(-c3cnc(C)nc3)cc12 [Compound 504, (2S,4R)-1-(2-(3-Acetyl-5-(2-methylpyrimidin-5-yl)-1H-indazol-1-yl)acetyl)-4-fluoro-N-(3-(pentafluoro-λ^6-sulfanyl)phenyl)pyrrolidine-2-carboxamide] | < 1 µM

Same assay, conditions: Table 4; Factor D inhibition, substrate Z-L-Lys-SBzl

SMILES | IC50
CC(=O)c1nn(CC(=O)N2C[C@H](F)C[C@H]2c2nnc(CCCC(F)(F)F)o2)c2ccc(-c3cnc(C)nc3)cc12 [Compound 583, 2-(3-Acetyl-5-(2-methylpyrimidin-5-yl)-H-indazol-1-yl)-1-((2S,4R)-4-fluoro-2-(5-(4,4,4-trifluorobutyl)-1,3,4-oxadiazol-2-yl)pyrrolidin-1-yl)ethan-1-one] | 1 to 10 µM
CC(=O)c1nn(CC(=O)N2C[C@H](F)C[C@H]2CC(=O)NC#N)c2ccc(-c3cnc(C)nc3)cc12 [Compound 579, 2-((2R,4R)-1-(2-(3-Acetyl-5-(2-methylpyrimidin-5-yl)-1H-indazol-1-yl)acetyl)-4-fluoropyrrolidin-2-yl)-N-cyanoacetamide] | > 10 µM
CC(=O)c1nn(CC(=O)N2C[C@H](F)C[C@H]2c2nnc(-c3cccc(Cl)c3F)[nH]2)c2ccc(-c3cnc(C)nc3)cc12 [Compound 571, 2-(3-acetyl-5-(2-methylpyrimidin-5-yl)-1H-indazol-1-yl)-1-((2S,4R)-2-(5-(3-chloro-2-fluorophenyl)-4H-1,2,4-triazol-3-yl)-4-fluoropyrrolidin-1-yl)ethan-1-one] | > 10 µM
CCOP(=O)(OCC)OC[C@@]12C[C@@H]1N(C(=O)Cn1nc(C(C)=O)c3cc(-c4cnc(C)nc4)ccc31)[C@H](C(=O)Nc1cccc(Br)n1)C2 [Compound 628, ((1S,3S,5R)-2-(2-(3-acetyl-5-(2-methylpyrimidin-5-yl)-1H-indazol-1-yl)acetyl)-3-((6-bromopyridin-2-yl)carbamoyl)-2-azabicyclo[3.1.0]hex-an-5-yl)methyl diethyl phosphate] | 1 to 10 µM
CC(=O)c1nn(CC(=O)N2CCC[C@H](CNC(=O)c3cccc(Br)n3)C2)c2ccc(-c3cnc(C)nc3)cc12 [Compound 556, (R)—N-((1-(2-(3-Acetyl-5-(2-methylpyrimidin-5-yl)-1H-indazol-1-yl)acetyl)piperidin-3-yl)methyl)-6-bromopicolinamide] | > 10 µM
Cc1cccc(NC(=O)[C@@H]2CCC(F)CCN2C(=O)Cn2cc(C(N)=O)c3cc(-c4ccc(N)nc4)ccc32)n1 (stereo partly drawn) [Compound 595, 5-(6-Aminopyridin-3-yl)-1-(2-((2S)-5-fluoro-2-((6-methylpyridin-2-yl)carbamoyl)azepan-1-yl)-2-oxoethyl)-1H-indole-3-carboxamide] | > 10 µM
C=CCCCCCCCCCNc1ncc(-c2ccc3c(c2)c(C(C)=O)nn3CC(=O)O)cn1 [Compound 535, 2-(3-acetyl-5-(2-(undec-10-en-1-ylamino)pyrimidin-5-yl)-1H-indazol-1-yl)acetic acid] | > 10 µM
Cc1cccc(NC(=O)[C@@H]2CCC(F)CCN2C(=O)Cn2cc(C(N)=O)c3cc(-c4ccc5c(c4)CCCC5)ccc32)n1 (stereo partly drawn) [Compound 589, 1-(2-((2S)-5-fluoro-2-((6-methylpyridin-2-yl)carbamoyl)azepan-1-yl)-2-oxoethyl)-5-(5,6,7,8-tetrahydronaphthalen-2-yl)-1H-indole-3-carboxamide] | > 10 µM
Cc1ncc(-c2ccc3c(c2)c(C(=O)NS(C)(=O)=O)nn3CC(=O)N2C[C@H](F)C[C@H]2C(=O)Nc2cccc(Br)n2)cn1 [Compound 585, 1-(2-((2S,4R)-2-((6-bromopyridin-2-yl)carbamoyl)-4-fluoropyrrolidin-1-yl)-2-oxoethyl)-5-(2-methylpyrimidin-5-yl)-N-(methylsulfonyl)-1H-indazole-3-carboxamide] | > 10 µM
CC[C@H](NC(=O)Cn1nc(C(C)=O)c2cc(-c3cnc(C)nc3)ccc21)C(=O)Nc1cccc(Br)n1 [Compound 600] | < 1 µM
CC(=O)c1nn(CC(=O)N2C[C@H](F)C[C@H]2CNCc2cccc(Cl)c2F)c2ccc(-c3cnc(C)nc3)cc12 [Compound 630, 2-(3-Acetyl-5-(2-methylpyrimidin-5-yl)-1H-indazol-1-yl)-1-((2S,4R)-2-(((3-chloro-2-fluorobenzyl)amino)methyl)-4-fluoropyrrolidin-1-yl)ethan-1-one] | 1 to 10 µM
Cc1ccc(-c2ccc3c(c2)c(C(N)=O)cn3CC(=O)N2CCC(F)CC[C@H]2C(=O)Nc2cccc(C)n2)cn1 (stereo partly drawn) [Compound 586, 1-(2-((2S)-5-Fluoro-2-((6-methylpyridin-2-yl)carbamoyl)azepan-1-yl)-2-oxoethyl)-5-(6-methylpyridin-3-yl)-1H-indole-3-carboxamide] | > 10 µM
CC(=O)c1nn(CC(=O)N2C[C@H](F)C[C@H]2C[S+]([O-])c2cccc(Br)n2)c2ccc(-c3cnc(C)nc3)cc12 (stereo partly drawn) [Compound 604, 2-(3-Acetyl-5-(2-methylpyrimidin-5-yl)-1H-indazol-1-yl)-1-((2S,4R)-2-(((6-bromopyridin-2-yl)sulfinyl)methyl)-4-fluoropyrrolidin-1-yl)ethan-1-one] | 1 to 10 µM
Cc1ncc(-c2ccc3c(c2)c([C@@H](C)O)nn3CC(=O)N2C[C@H](F)C[C@H]2C(=O)O)cn1 [Compound 550, (2S,4R)-4-fluoro-1-(2-(3-((R)-1-hydroxyethyl)-5-(2-methylpyrimidin-5-yl)-1H-indazol-1-yl)acetyl)pyrrolidine-2-carboxylic acid] | > 10 µM
CC[C@@H](NC(=O)Cn1nc(C(C)=O)c2cc(-c3cnc(C)nc3)ccc21)C(=O)Nc1cccc(Br)n1 [Compound 599] | > 10 µM
CC(=O)c1nn(CC(=O)N2C[C@H](F)C[C@H]2CNC(=O)c2cccc(Cl)c2F)c2ccc(-c3cnc(C)nc3)cc12 [Compound 562, N-(((2S,4R)-1-(2-(3-acetyl-5-(2-methylpyrimidin-5-yl)-1H-indazol-1-yl)acetyl)-4-fluoropyrrolidin-2-yl)methyl)-3-chloro-2-fluorobenzamide] | > 10 µM
CC(=O)c1nn(CC(=O)N2CCC[C@@H](CNC(=O)c3cccc(Br)n3)C2)c2ccc(-c3cnc(C)nc3)cc12 [Compound 543, (S)—N-((1-(2-(3-Acetyl-5-(2-methylpyrimidin-5-yl)-1H-indazol-1-yl)acetyl)piperidin-3-yl)methyl)-6-bromopicolinamide] | > 10 µM
CC(=O)c1nn(CC(=O)N2C[C@H](F)C[C@H]2C(=O)Nc2cccc(-c3ccc4scnc4c3)c2F)c2ccc(-c3cnc4cc(C)nn4c3)cc12 [Compound 639, (2S,4R)-1-(2-(3-acetyl-5-(4-methylpyrazolo[1,5-a]pyrimidin-6-yl)-1H-indazol-1-yl)acetyl)-N-(3-(benzo[d]thiazol-5-yl)-2-fluorophenyl)-4-fluoropyrrolidine-2-carboxamide] | < 1 µM
Cc1ncc(-c2ccc3c(c2)c(C(=N)N)nn3CC(=O)N2C[C@H](F)C[C@H]2C(=O)Nc2cccc(-c3ccccc3Cl)c2F)cn1 [Compound 542, (2S,4R)-1-(2-(3-Carbamimidoyl-5-(2-methylpyrimidin-5-yl)-1H-indazol-1-yl)acetyl)-N-(2′-chloro-2-fluoro-[1,1′-biphenyl]-3-yl)-4-fluoropyrrolidine-2-carboxamide] | < 1 µM
CC(=O)c1nn(CC(=O)N2C[C@H](F)C[C@H]2CC(=O)Nc2cccc(Cl)c2F)c2ccc(-c3cnc(C)nc3)cc12 [Compound 576, 2-((2R,4R)-1-(2-(3-Acetyl-5-(2-methylpyrimidin-5-yl)-1H-indazol-1-yl)acetyl)-4-fluoropyrrolidin-2-yl)-N-(3-chloro-2-fluorophenyl)acetamide] | > 10 µM
